Assay [1] deals with isolated rabbit urinary bladder. Description: Relaxation effect on potassium-induced contraction of isolated rabbit urinary bladder. It is filed as cell-based. Particulars: 50% relaxation concentration, high-K+ (30 mM) pre-contracted rabbit bladder strips, relaxation as percentage of the maximum produced by 0.1 mM papaverine, read-out: EC50 value range. How it is done:
Relaxation effect on potassium-induced contraction of isolated rabbit urinary bladder
Urinary bladder was isolated from Male NZW rabbits (2.0-3.5 kg) and immersed in ice-cold Krebs-bicarbonate solution (in mM: 118 NaCl, 4.7 KCl, 1.2, 2.5 CaCl2, MgSO4, 1.2 KH2PO4, 11 glucose, 25 NaHCO3). The urinary bladder was cut into longitudinal strips (5 mm length, 3-4 mm width) after mucosal layer was removed. Preparations were mounted in organ baths containing 10 ml of Krebs solution maintained at 37° C. and gassed with 95% O2/5% CO2. Accordingly, preparations were stretched with an initial tension of 2.0±1.0 g, and changes in isometric tension were measured by force-displacement transducer. The preparations were pre-contracted by changing organ-bath solution into high-K^+ (30 mM) Krebs solution (in mM: 92.7 NaCl, 30 KCl, 1.2, 2.5 CaCl2, MgSO4, 1.2 KH2PO4, 11 glucose, 25 NaHCO3).
After stable tension was obtained, compounds were added into organ baths cumulatively (10^−8M-10^−4M). The effects of compounds were expressed as a percentage of the maximum relaxation produced by 0.1 mM papaverine. 50% relaxation concentration (EC50) was calculated and EC50 value range (μM) of the compounds of the present invention was shown in the following Table 64 with a rank of A, B or C. These ranges are as mentioned below. 3≧C≧1≧B≧0.5≧A

The subject of assay [2] is rhythmic bladder contractions induced by substance P. The experiment in a line: Inhibitory effect on the rhythmic bladder contractions induced by substance P in anesthetized rats. The format is in vivo, rat. Particulars: time during which frequency of rhythmic contraction was completely inhibited, 0.25 mg/kg of the compound, substance P infusion. The essentials:
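Urethane-anesthetized female Sprague-Dawley rats with rhythmic bladder contractions driven by i.v. substance P (0.33 μg/kg/min). Compound given i.v. in saline/0.5% Tween 80 once contractions stable 15 min; intravesical pressure monitored, duration of 100% inhibition ranked A ≥20, B ≥10, C <10 min.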

Like-named read-outs stand apart in the source and are kept apart here.

On to “5-(5-chlorothiophen-2-yl)-2-(4-fluorophenyl)oxazole-4-yl propionic acid sodium salt [Preparation Example 339]”, for which, in assay [1], the EC50 lay within 1000 to 3000 nM.
Take `CSc1ncc(-c2nc(CC(=O)O)c(-c3ccc(Cl)c(F)c3)o2)cn1` [Preparation Example 462]: the EC50 in assay [1] (Oryctolagus cuniculus) lay in the range of 500 to 1000 nM. Moreover, the “100% inhibition time range” value in assay [2] is recorded as “C (A≧20>B≧10>C (minute))”.
Turning to `O=C(O)Cc1nc(-c2ccc(F)cc2)oc1-c1ccc[nH]1` [Preparation Example 524], in assay [1] (Oryctolagus cuniculus), the EC50 was 1000 to 3000 nM. Further, in assay [2], the “100% inhibition time range” value is on record as “B (A≧20>B≧10>C (minute))”.
Turning to `COc1ccc(-c2nc(-c3ccsc3)c(CC(=O)O)s2)cc1` [Preparation Example 597], the EC50 in assay [1] (Oryctolagus cuniculus) was not above 500 nM.
For the compound `Cc1cc(-c2oc(-c3ccc(F)cc3)nc2CC(=O)O)sc1Cl` [Preparation Example 257], the EC50 in assay [1] (Oryctolagus cuniculus) is not above 500 nM. For the same compound, in assay [2], the “100% inhibition time range” value is “B (A≧20>B≧10>C (minute))”.
On to `O=C(O)Cc1nc(-c2ccc3occc3c2)oc1-c1cccs1` [Preparation Example 269], for which the 50% effective concentration (EC50) in assay [1] (Oryctolagus cuniculus) is not above 500 nM. Also, the “100% inhibition time range” value in assay [2] is listed as “B (A≧20>B≧10>C (minute))”.
With `CCc1nc(-c2csc(Cl)c2)[nH]c1-c1cccnc1` [Preparation example 55], the EC50 in assay [1] (Oryctolagus cuniculus) lay within 1000 to 3000 nM. Moreover, the “100% inhibition time range” value in assay [2] is listed as “B (A≧20>B≧10>C (minute))”.
The like results for `CCc1nc(-c2cccc(Cl)c2)[nH]c1-c1cccnc1` [Preparation example 13] were, in that order, not above 500 nM and “C (A≧20>B≧10>C (minute))”.
As for `O=C(O)Cc1nc(-c2ccc3occc3c2)oc1-c1ccc(Cl)s1` [Preparation Example 272], in assay [1] (Oryctolagus cuniculus), the EC50 was not above 500 nM. For the same compound, the “100% inhibition time range” value in assay [2] is on record as “B (A≧20>B≧10>C (minute))”.
As for `COc1ccc(-c2nc(-c3ccc(Cl)cc3)c(CC(=O)O)o2)cc1` [Preparation Example 517], in assay [1] (Oryctolagus cuniculus), the EC50 is not above 500 nM. Further, the “100% inhibition time range” value in assay [2] is reported as “C (A≧20>B≧10>C (minute))”.
Turning to `O=C(O)Cc1nc(-c2ccc(F)cc2)oc1-c1csc2ccccc12` [Preparation Example 158], in assay [1] (Oryctolagus cuniculus), the EC50 fell in the range of 1000 to 3000 nM. Besides, the “100% inhibition time range” value in assay [2] was “C (A≧20>B≧10>C (minute))”.
In the case of `CCCc1nc(-c2ccccn2)[nH]c1-c1cccs1` [Preparation example 5], in assay [1] (Oryctolagus cuniculus), the EC50 lay in the range of 1000 to 3000 nM.
On to `O=C(O)Cc1nc(-c2ccc(F)cc2)oc1-c1ccc2occc2c1` [Preparation Example 285], for which, in assay [1] (Oryctolagus cuniculus), the EC50 lay within 1000 to 3000 nM. In addition, the “100% inhibition time range” value in assay [2] was “B (A≧20>B≧10>C (minute))”.
In the case of `CCc1nc(-c2ccc(Cl)s2)[nH]c1-c1cccnc1` [Preparation example 14], the EC50 in assay [1] (Oryctolagus cuniculus) lay in the range of 1000 to 3000 nM. For the same compound, the “100% inhibition time range” value in assay [2] is “A (A≧20>B≧10>C (minute))”.
Take `CSc1ccc(-c2nc(CC(=O)[O-])c(-c3ccsc3)o2)cn1.[Na+]` [Preparation Example 365, 2-(6-methylthiopyridin-3-yl)-5-(3-thienyl)oxazol-4-yl acetic acid sodium salt]: in assay [1] (Oryctolagus cuniculus), the EC50 was in the range of 1000 to 3000 nM. The “100% inhibition time range” value in assay [2] is reported as “B (A≧20>B≧10>C (minute))”.
As for `CCc1nc(-c2ccc(C#N)s2)[nH]c1-c1cccnc1` [Preparation example 16], the EC50 in assay [1] (Oryctolagus cuniculus) lay within 1000 to 3000 nM. Also, the “100% inhibition time range” value in assay [2] is given as “B (A≧20>B≧10>C (minute))”.
As to `COc1ccc(-c2nc(-c3cccs3)c(CC(=O)O)o2)cc1` [Preparation Example 507], the EC50 in assay [1] (Oryctolagus cuniculus) was not above 500 nM.
In the case of `O=C(O)Cc1nc(-c2ccc(Cl)cc2)oc1C1CCCC1` [Preparation Example 265], the EC50 in assay [1] (Oryctolagus cuniculus) lay within 1000 to 3000 nM.
`CC(C)c1nc(-c2ccc(F)cc2)[nH]c1-c1ccsc1` [Preparation Example 169]: the EC50 in assay [1] (Oryctolagus cuniculus) lay within 1000 to 3000 nM.
Same read-out and setting: next, `CCc1nc(-c2ccc(F)cc2)[nH]c1-c1ccccc1OC` [Preparation example 84]: not above 500 nM; `O=C(O)Cc1[nH]c(-c2cc3ccccc3s2)nc1-c1ccc(Cl)cc1` [Preparation Example 355]: not above 500 nM.
On the same count and under the same terms, next, `CCCc1nc(-c2ccc(F)cc2)[nH]c1-c1cccc(OC)c1` [Preparation example 96]: 1000 to 3000 nM.
The same measure, in the same setting: next, `CCOC(=O)C(N)c1nc(-c2ccc(F)cc2)oc1-c1ccc(Cl)s1` (centres unmarked) [Preparation Example 372, ethyl 2-amino-2-[5-(5-chlorothiophen-2-yl)-2-(4-fluorophenyl)-oxazol-4-yl]acetate]: 1000 to 3000 nM.
`CCCc1nc(-c2cc3ccccc3o2)[nH]c1-c1ccccc1` [Preparation example 38]: the EC50 in assay [1] (Oryctolagus cuniculus) was in the range of 1000 to 3000 nM.
Still for that read-out and setting: next, `CCc1nc(-c2csc(Br)c2)[nH]c1-c1cccnc1` [Preparation example 19]: not above 500 nM; `Fc1ccc(-c2nc(CC(F)(F)F)c(-c3ccsc3)[nH]2)cc1` [Preparation Example 173]: 1000 to 3000 nM.
Take `CCc1nc(-c2ccc(F)cc2)[nH]c1-c1cnccn1` [Preparation example 49]: the concentration giving a half-maximal response (EC50) in assay [1] (Oryctolagus cuniculus) fell in the range of 500 to 1000 nM.
As to `CCc1nc(-c2cccc(C#N)c2)[nH]c1-c1cccnc1` [Preparation example 57], the EC50 in assay [1] (Oryctolagus cuniculus) lay in the range of 1000 to 3000 nM.
On to `CCCc1nc(-c2ccc[nH]2)[nH]c1-c1ccccc1` [Preparation example 35], for which, in assay [1] (Oryctolagus cuniculus), the EC50 lay in the range of 1000 to 3000 nM.
Take `CN(C)c1ccc(-c2nc(-c3cccs3)c(CC(=O)O)o2)cn1` [Preparation Example 506]: in assay [1] (Oryctolagus cuniculus), the EC50 fell in the range of 500 to 1000 nM.
With `CCCc1nc(-c2ccccc2)[nH]c1-c1ccccc1` [Preparation Example 180], the EC50 in assay [1] (Oryctolagus cuniculus) was 1000 to 3000 nM.
In the case of `CCc1nc(-c2ccc(C)nc2)[nH]c1-c1ccsc1` [Preparation example 81], the EC50 in assay [1] (Oryctolagus cuniculus) is 1000 to 3000 nM.
The same measure, in the same setting: next, `CCc1nc(-c2ccc(F)cc2)[nH]c1-c1nccs1` [Preparation example 51]: not above 500 nM; `CCCc1nc(-c2cccc3ccccc23)[nH]c1-c1ccccc1` [Preparation example 36]: 1000 to 3000 nM.
Regarding `CCCc1nc(-c2ccc(F)cc2)[nH]c1-c1cccnc1` [Preparation example 93], the “100% inhibition time range” value in assay [2] was “B (A≧20>B≧10>C (minute))”.
On the same count and under the same terms, as for `O=C(O)Cc1nc(-c2ccc(F)cc2)oc1-c1ccc2ncccc2c1` [Preparation Example 239], the entry is “C (A≧20>B≧10>C (minute))”.
As for `CCCc1nc(-c2ccsc2)[nH]c1-c1ccccc1` [Preparation example 33], the EC50 in assay [1] (Oryctolagus cuniculus) is not above 500 nM.
On to `O=C(O)Cc1sc(-c2ccc(F)cc2)nc1-c1cccs1` [Preparation Example 577], for which, in assay [2], the “100% inhibition time range” value is recorded as “B (A≧20>B≧10>C (minute))”.
Consider `COCc1nc(-c2ccc(F)cc2)[nH]c1-c1ccccc1` [Preparation example 121], for which the EC50 in assay [1] (Oryctolagus cuniculus) lay within 1000 to 3000 nM.
For `CNc1[nH]c(-c2ccc(F)cc2)nc1-c1ccccc1` [Preparation example 107, 5-methylamino-2-(4-fluorophenyl)-4-phenylimidazole], the “100% inhibition time range” value in assay [2] is recorded as “B (A≧20>B≧10>C (minute))”.
In the case of `CCCc1nc(-c2ccc(F)cc2)[nH]c1-c1ccccn1` [Preparation example 97], in assay [1] (Oryctolagus cuniculus), the EC50 is 500 to 1000 nM.
For the compound `O=C(Cc1nc(-c2ccc(F)cc2)oc1-c1ccsc1)NCc1ccccn1` [Preparation Example 375], the “100% inhibition time range” value in assay [2] is listed as “C (A≧20>B≧10>C (minute))”.
As to `O=C(O)Cc1nc(-c2ccc(F)cc2)oc1-c1cc(Cl)ccc1O` [Preparation Example 242], the “100% inhibition time range” value in assay [2] is “C (A≧20>B≧10>C (minute))”.
Take `CCc1nc(-c2ccc(F)cc2)[nH]c1-c1cscn1` [Preparation example 52]: in assay [1] (Oryctolagus cuniculus), the EC50 is not above 500 nM.
For `O=C(O)Cc1nc(-c2cc3ncccc3s2)oc1-c1ccc(Cl)s1` [Preparation Example 470], the “100% inhibition time range” value in assay [2] is reported as “B (A≧20>B≧10>C (minute))”.
Turning to `COc1ccc(-c2oc(-c3ccc(F)cc3)nc2CC(=O)O)cc1F` [Preparation Example 250], the “100% inhibition time range” value in assay [2] is listed as “B (A≧20>B≧10>C (minute))”.
Consider `CCCCc1nc(-c2ccc(F)cc2)[nH]c1-c1ccsc1` [Preparation Example 170], for which the EC50 in assay [1] (Oryctolagus cuniculus) fell in the range of 1000 to 3000 nM.
Consider `Cc1cc(-c2oc(-c3ccc(F)cc3)nc2CC(=O)O)sc1CO` [Preparation Example 233], for which the “100% inhibition time range” value in assay [2] is recorded as “C (A≧20>B≧10>C (minute))”.
As to `CSCc1nc(-c2cccc(F)c2)[nH]c1-c1ccccc1` [Preparation example 131], the EC50 in assay [1] (Oryctolagus cuniculus) fell in the range of 1000 to 3000 nM.
As for `Cn1c(-c2nc(CC(=O)O)c(-c3ccc(Cl)s3)o2)cc2ccccc21` [Preparation Example 472], the “100% inhibition time range” value in assay [2] was “A (A≧20>B≧10>C (minute))”.
As to `COc1ccc(-c2nc(CC(=O)O)c(-c3ccc(Cl)cc3)o2)cc1` [Preparation Example 475], the “100% inhibition time range” value in assay [2] is reported as “B (A≧20>B≧10>C (minute))”.
For the compound `CCCc1nc(-c2ccccc2[N+](=O)[O-])[nH]c1-c1ccccc1` [Preparation example 39], in assay [1] (Oryctolagus cuniculus), the EC50 fell in the range of 1000 to 3000 nM.

In general, EC50 refers to the concentration that produces a half-maximal response.

The record behind these values is patent US7759373B2, “Large conductance calcium-activated K channel opener” (Mitsubishi Tanabe Pharma Corporation, priority 2001, dated 2010).
